In patent US5773239A, “Mannosidase inhibitors, process for their preparation and their use as therapeutic agents” (Mount Sinai Hospital Corporation., priority 1995, dated 1998):
Where two headings read alike, the source gives them in different places.

Key:
[1] = test system: MDAY-D2 tumor cells; assay: L-PHA toxicity assay (inhibition of oligosaccharide processing in cells); type: cell-based, mouse; conditions: for IC50 for inhibition of Golgi oligosaccharide processing, higher / activity as inhibitors of Golgi oligosaccharide processing in viable MDAY-D2 tumor cells: compared to SW; for IC50: Mus musculus, read-out: IC50 for Inhibition of L-PHA Toxicity
Procedure: MDAY-D2 tumor cells were inoculated into 96 well micro-test plates at 2×10^4 cells/well, and containing serial dilutions of SW or SW analogues in MEM plus 10% FCS. The cells were cultured for 18-20 hr, followed by the addition of L-PHA at 25 μg/ml for an additional 24 hr. Cell proliferation was measured by adding 0.5 μCi/well of ^3 H-thymidine for 3-4 hr, harvesting onto glass fibre disks using a Titertek harvester and the disks were counted in a liquid scintillation counter. The apparent IC50 values for SW and the analogues are the drug concentrations showing 50% protection from L-PHA toxicity; that is 50% ^3 H-thymidine incorporated compared with cells grown in the absence of L-PHA. In experiments using the esterase inhibitor diethyl p-nitrophenyl phosphate, the compound was added to MDAY-D2 cells 4 hr prior to the α-mannosidase inhibitors and was present through-out the experiment.

[2] = biological target: T1, MDAY-D2 lysosomal α-mannosidases (Mus musculus, UniProt O09159); assay: Inhibition of lysosomal α-mannosidases in MDAY-D2 tumor cell lysate; type: biochemical
T1 construct: 10 μl MDAY-D2 tumor cell lysate; endogenous in cells; host or cells: MDAY-D2 tumor cells (lysate)
T1 sequence (O09159 50-1013): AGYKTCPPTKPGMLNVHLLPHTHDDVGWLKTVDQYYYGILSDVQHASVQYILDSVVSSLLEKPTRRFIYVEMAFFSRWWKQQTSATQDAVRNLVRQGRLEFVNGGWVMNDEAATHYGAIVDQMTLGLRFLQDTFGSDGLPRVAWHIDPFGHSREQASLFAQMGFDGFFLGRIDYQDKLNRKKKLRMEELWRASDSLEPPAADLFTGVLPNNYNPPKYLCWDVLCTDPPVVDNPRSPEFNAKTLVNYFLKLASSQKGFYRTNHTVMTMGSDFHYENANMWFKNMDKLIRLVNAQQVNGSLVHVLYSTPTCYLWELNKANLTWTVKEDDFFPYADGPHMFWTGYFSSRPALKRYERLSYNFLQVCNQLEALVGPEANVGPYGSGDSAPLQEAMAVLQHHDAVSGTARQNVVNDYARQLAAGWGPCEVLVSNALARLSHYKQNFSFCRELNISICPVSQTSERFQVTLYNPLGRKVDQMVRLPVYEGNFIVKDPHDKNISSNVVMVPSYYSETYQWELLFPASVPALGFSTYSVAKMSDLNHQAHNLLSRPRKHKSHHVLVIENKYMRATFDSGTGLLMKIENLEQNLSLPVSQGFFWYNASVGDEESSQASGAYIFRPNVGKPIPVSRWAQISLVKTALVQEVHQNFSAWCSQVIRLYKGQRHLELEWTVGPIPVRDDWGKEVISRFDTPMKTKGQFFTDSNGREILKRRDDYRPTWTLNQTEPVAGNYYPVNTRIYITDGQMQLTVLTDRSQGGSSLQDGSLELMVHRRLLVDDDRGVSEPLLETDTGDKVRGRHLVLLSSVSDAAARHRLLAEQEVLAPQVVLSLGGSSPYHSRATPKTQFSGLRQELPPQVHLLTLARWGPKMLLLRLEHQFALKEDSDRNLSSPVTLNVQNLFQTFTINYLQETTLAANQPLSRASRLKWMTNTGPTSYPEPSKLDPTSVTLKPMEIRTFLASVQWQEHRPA
Procedure: SW and analogues were serially diluted into a volume of 75 μl in 96 well Elisa plates followed by the addition of 37.5 μl of 100 mM sodium acetate pH 5.0 and 37.5 μl of 10 mM p-nitrophenyl α-D-mannospyranoside. Jack Bean α-mannosidase (Sigma, 38 U/ml) was diluted 1/800, 10 μl was added to each well and the plates were incubated for 20 min at 37° C. The reaction was stopped by the addition of 150 μl of 0.5M sodium carbonate and formation of p-nitrophenol was measured with a plate set at 405 nm. The effects of SW and analogues on cellular acid α-mannosidases (ie. lysosomal enzyme) were measured using the same assay where Jack Bean α-mannosidase was replaced by 10 μl MDAY-D2 tumor cell lysate (10 μg/μl of protein) prepared in 0.9% NaCl, 50 mM Tris pH 7.0, 0.5% Triton X-100 and 1.0 mM diethyl p-nitrophenyl phosphate.

[3] = biological target: T2, Jack Bean α-mannosidase (Canavalia ensiformis, UniProt C0HJB3); assay: Inhibition of Jack Bean α-mannosidase; type: biochemical
T2 construct: purchased Sigma
T2 sequence (C0HJB3 1-981): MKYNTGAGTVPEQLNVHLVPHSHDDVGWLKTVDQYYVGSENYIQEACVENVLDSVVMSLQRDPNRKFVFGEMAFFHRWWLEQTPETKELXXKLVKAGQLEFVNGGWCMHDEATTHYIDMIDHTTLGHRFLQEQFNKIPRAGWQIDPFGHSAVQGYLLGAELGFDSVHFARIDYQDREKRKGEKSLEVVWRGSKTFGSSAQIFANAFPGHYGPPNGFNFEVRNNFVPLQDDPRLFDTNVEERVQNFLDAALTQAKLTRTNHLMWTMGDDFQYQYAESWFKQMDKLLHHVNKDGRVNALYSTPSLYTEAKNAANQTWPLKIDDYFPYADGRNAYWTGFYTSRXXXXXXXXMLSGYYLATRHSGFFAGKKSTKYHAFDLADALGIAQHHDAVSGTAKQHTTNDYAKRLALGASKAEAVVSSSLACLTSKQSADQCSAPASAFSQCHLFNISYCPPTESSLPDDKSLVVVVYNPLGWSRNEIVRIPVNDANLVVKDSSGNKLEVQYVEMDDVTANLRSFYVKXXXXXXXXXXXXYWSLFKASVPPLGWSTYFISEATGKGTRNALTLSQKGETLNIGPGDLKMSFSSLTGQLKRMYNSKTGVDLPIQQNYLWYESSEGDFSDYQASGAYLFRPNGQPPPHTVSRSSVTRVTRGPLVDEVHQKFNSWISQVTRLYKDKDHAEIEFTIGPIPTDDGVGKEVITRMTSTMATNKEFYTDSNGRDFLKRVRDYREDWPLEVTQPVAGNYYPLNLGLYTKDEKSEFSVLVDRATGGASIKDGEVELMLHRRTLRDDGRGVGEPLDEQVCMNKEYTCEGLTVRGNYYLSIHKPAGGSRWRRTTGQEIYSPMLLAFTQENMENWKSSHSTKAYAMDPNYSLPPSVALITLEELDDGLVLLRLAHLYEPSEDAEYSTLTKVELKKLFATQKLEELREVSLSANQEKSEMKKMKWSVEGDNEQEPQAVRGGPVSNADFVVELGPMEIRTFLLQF
Procedure: Jack Bean α-mannosidase (Sigma, 38 U/ml) was diluted 1/800, 10 μl was added to each well and the plates were incubated for 20 min at 37° C. The reaction was stopped by the addition of 150 μl of 0.5M sodium carbonate and formation of p-nitrophenol was measured with a plate set at 405 nm.

[4] = MDAY-D2 tumor cells, L-PHA 25 μg/ml, 50% protection by 3H-thymidine incorporation
[5] = MDAY-D2 tumor cell lysate, pH 5.0, read-out: IC50 for inhibition of MDAY-D2 α-mannosidase
[6] = p-nitrophenyl α-D-mannopyranoside, pH 5.0, 20 min 37° C., read-out: IC50 for inhibition of J.B. α-mannosidase

Structure (SMILES) | IC50 for inhibition of Golgi oligosaccharide processing, higher ([1]; MDAY-D2 tumor cells) | IC50 [1, 4] [µM] | IC50 [2, 5] [µM] | IC50 [3, 6] [µM] | activity as inhibitors of Golgi oligosaccharide processing in viable MDAY-D2 tumor cells [1] | IC50 [3] [µM] | reduction of inhibitor activity / greater IC50 for α-mannosidase in vitro compared to SW ([3]; compared to SW) [fold] | less active than SW in the Jack Bean α-mannosidase assay ([3]; compared to SW) [times] | IC50 ([1]; MDAY-D2, 3 h) [µM] | IC50 [2] [µM]
O=C(OC1CN2CCCC(O)C2C1O)c1ccccc1 (stereo not shown) [2-benzoyloxy-SW] | at least 10 times | 1.8 | 720 | 350 | – | – | – | – | – | –
CCCC(=O)OC1CN2CCCC(O)C2C1O (stereo not shown) [2-butanoyloxy-SW] | – | 0.23 | 35 | – | retained full activity | 123 | 300 | – | – | –
CCCCCCCC(=O)OC1CN2CCCC(O)C2C1O (stereo not shown) [2-octanoyloxy-SW] | – | 0.23 | 35 | 123 | retained full activity | – | 300 | – | – | –
O=C(OC1CN2CCCC(O)C2C1O)c1ccc([N+](=O)[O-])cc1 (stereo not shown) [2-p-nitrobenzoyloxy-SW] | – | 0.23 | 35 | 123 | retained full activity | – | 300 | – | – | –
Cc1ccc(C(=O)O[C@@H]2CN3CCC[C@@H](O)[C@@H]3[C@@H]2O)cc1 [2-toluoyloxy-SW] | at least 10 times | 3.4 | 69 | 350 | – | – | – | – | – | –
OC1CN2C[C@@H](O)[C@@H](O)[C@H]2[C@H](O)C1O (stereo partly shown) [6,7-dihydroxy-SW] | – | > 5 | 10 | 50 | – | – | – | 100 | – | –
CCCCCCCCCCCCCC(=O)OC1CCCN2CC(O)C(O)C12 (stereo not shown) [8-myristinoyloxy-SW] | at least 10 times | > 2.5 | > 500 | > 500 | – | – | – | – | – | –
CCCCCCCCCCCCCCCC(=O)OC1CCCN2CC(O)C(O)C12 (stereo not shown) [8-palmitoyloxy-SW] | at least 10 times | > 2.5 | 500 | 240 | – | – | – | – | – | –
O[C@H]1[C@H]2[C@H](O)CCCN2C[C@H]1O [SW, Swainsonine, reference compound] | – | – | – | – | – | – | – | – | 0.2 | 0.5
